Experimental data published in patent US20030235811A1, “Crystallized mammalian carboxylesterase polypeptide and screening methods employing same” (priority 2002, published 2003).

Experiments:
deglycosylated rCE = target: T1, deglycosylated rCE (Oryctolagus cuniculus, UniProt P12337); experiment: CD thermal denaturation of deglycosylated rCE in the presence of 4PP; type: binding, rabbit
T1 construct: made in house; host or cells: Spodoptera frugiperda Sf21 cells, baculovirus, secreted; then PNGase F treatment
T1 sequence (P12337 19-559): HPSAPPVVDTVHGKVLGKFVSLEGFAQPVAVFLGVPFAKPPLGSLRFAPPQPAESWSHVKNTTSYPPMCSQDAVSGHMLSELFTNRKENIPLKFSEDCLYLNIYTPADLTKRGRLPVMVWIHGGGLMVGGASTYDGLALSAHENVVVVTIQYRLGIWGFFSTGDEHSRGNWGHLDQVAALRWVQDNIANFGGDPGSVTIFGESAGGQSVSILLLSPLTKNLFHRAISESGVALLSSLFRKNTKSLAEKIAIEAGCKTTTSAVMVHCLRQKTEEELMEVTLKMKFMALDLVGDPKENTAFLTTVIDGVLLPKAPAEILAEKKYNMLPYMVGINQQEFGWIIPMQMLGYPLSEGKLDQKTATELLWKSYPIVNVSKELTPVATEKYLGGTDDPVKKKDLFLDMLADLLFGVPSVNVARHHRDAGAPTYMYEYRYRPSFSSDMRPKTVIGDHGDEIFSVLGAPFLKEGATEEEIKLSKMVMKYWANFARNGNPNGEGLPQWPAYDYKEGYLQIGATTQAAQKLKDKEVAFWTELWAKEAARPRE
Experimental: (§1) Experiments were conducted by monitoring rCE denaturation in an Applied Photophysics PISTAR-180™ CD spectropolarimeter (Applied Photophysics, Surrey, United Kingdom). Deglycosylated rCE was generated by an 18-hour treatment with 0.25 μM PNGase F (Hampton Research, Laguna Niguel, Calif., United States of America) at 37° C., which cleaves the complete high-mannose glycosyl group. Removal of the carbohydrate chains was confirmed by SDS-PAGE. Wild type protein was also heated to 37° C. for 18 hours before CD experiments. Wild type or deglycosylated rCE (0.15 mg ml^−1 (2.5 μM); in 10 mM phosphate buffer, pH 7.0, and 1 mM fresh beta-mercaptoethanol (βME) to eliminate the stabilizing effect of disulfide linkages) was treated with no 4PP or with 0.016 mM, 0.16 mM, 1.6 mM or 10 mM 4PP. The temperature was increased from 20 to 98° C. while monitoring the ellipticity at 222 nm. […]
(§2) To confirm the significance of the 4PP bound to the surface of rCE, thermal denaturation studies were performed using CD on both wild type and deglycosylated rCE. […] In the presence of fresh reducing agent (1 mM β-mercaptoethanol (βME)), thermal denaturation of wild type and deglycosylated rCE was monitored alone and in the presence of 10-(0.016 mM), 100-(0.16 mM), 1,000-(1.6 mM) and 6,000-fold (10 mM) molar excess 4PP (FIGS. 7-9). […]

wild type rCE = target: T2, wild type rCE (Oryctolagus cuniculus, UniProt P12337); experiment: CD thermal denaturation of wild type rCE in the presence of 4PP; type: binding, rabbit; conditions: 1 mM βME
T2 construct: made in house; host or cells: Spodoptera frugiperda Sf21 cells, baculovirus, secreted into the medium
T2 sequence (P12337 19-559 limits assumed): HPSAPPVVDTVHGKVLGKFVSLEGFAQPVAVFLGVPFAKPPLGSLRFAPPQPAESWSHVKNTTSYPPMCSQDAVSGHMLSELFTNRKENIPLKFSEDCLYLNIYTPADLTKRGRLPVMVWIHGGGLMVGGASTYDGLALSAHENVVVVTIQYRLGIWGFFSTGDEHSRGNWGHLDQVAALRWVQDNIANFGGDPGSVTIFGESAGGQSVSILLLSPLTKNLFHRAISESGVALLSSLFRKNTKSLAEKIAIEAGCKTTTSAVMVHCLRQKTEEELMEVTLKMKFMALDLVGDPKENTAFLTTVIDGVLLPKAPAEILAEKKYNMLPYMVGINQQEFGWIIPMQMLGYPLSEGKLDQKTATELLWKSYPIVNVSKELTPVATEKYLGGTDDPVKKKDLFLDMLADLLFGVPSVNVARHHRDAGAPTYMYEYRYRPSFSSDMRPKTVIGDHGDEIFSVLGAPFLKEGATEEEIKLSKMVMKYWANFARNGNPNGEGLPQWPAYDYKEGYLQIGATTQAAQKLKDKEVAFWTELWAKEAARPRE
Experimental: as §1, §2

[1] = humans; cited from earlier work
hCE1 = hCE1 (Homo sapiens, UniProt P23141)
Experimental: A 62 kDa C-terminally-truncated form of human carboxylesterase 1 (hCE1; SEQ ID NO: 4) that lacks six C-terminal amino acids, allowing secretion of the expressed enzyme (baculovirus in Spodoptera frugiperda Sf21 cells) into the culture media, was employed. hCE1 was purified by preparative isoelectric focusing and size exclusion chromatography (BIO-GEL® P-100, Bio-Rad, Laboratories, Hercules, Calif.) from protein-free culture media. Purified hCE1 was concentrated to 5 mg ml^−1 in 20 mM HEPES pH 7.4, and crystallized in the presence of either 10 mM tacrine or 100 mM homatropine. […]
Diffraction data were collected at Stanford Synchrotron Radiation Laboratory (SSRL) beamline 9-1, and were processed and reduced using MOSFILM (Leslie, (1992), Joint CCP4+ESF-EAMCB Newsletter on Protein Crystallography, No. 26.). […] The structures of hCE1 were determined by molecular replacement using the structure of rabbit carboxylesterase (rCE; RCSB Protein ID No. 1K4Y; Bencharit et al., (2002) Nat.Struct.Biol. 9: 337), also an aspect of the present invention, as a search model (81% sequence identity). […] Manual adjustments and rebuilding were performed using the program O (Jones et al., (1991) Acta Crystallogr. A 47: 110-119) and σA-weighted electron density maps (Read, (1986) Acta Crystallogr. A 42: 140-149). […]

[2] = target: the molecule itself; experiment: X-ray crystal structure (self-association, homotrimer)
Experimental: Diffraction data were collected at Stanford Synchrotron Radiation Laboratory (SSRL) beamline 9-1, and were processed and reduced using MOSFILM (Leslie, (1992), Joint CCP4+ESF-EAMCB Newsletter on Protein Crystallography, No. 26.). Crystals were of space group P2₁, and contained six molecules in the asymmetric unit for both the tacrine and homatropine complexes. See FIG. 12, in which each hCE1 is depicted in a different color. The structures of hCE1 were determined by molecular replacement using the structure of rabbit carboxylesterase (rCE; RCSB Protein ID No. 1K4Y; Bencharit et al., (2002) Nat.Struct.Biol. 9: 337), also an aspect of the present invention, as a search model (81% sequence identity). Non-identical side chains were trimmed prior to rotation and translation function searches in AmoRe (Navaza & Saludjian, (1997) Methods Enzymol. 276A: 581-594). The structures were refined using torsion angle dynamics in CNS with the maximum likelihood function target, and included an overall anisotropic B-factor and a bulk solvent correction. […] Manual adjustments and rebuilding were performed using the program O (Jones et al., (1991) Acta Crystallogr. A 47: 110-119) and σA-weighted electron density maps (Read, (1986) Acta Crystallogr. A 42: 140-149). […]

Chain of hCE1 (P23141 18-560 isoform P23141-3 limits assumed): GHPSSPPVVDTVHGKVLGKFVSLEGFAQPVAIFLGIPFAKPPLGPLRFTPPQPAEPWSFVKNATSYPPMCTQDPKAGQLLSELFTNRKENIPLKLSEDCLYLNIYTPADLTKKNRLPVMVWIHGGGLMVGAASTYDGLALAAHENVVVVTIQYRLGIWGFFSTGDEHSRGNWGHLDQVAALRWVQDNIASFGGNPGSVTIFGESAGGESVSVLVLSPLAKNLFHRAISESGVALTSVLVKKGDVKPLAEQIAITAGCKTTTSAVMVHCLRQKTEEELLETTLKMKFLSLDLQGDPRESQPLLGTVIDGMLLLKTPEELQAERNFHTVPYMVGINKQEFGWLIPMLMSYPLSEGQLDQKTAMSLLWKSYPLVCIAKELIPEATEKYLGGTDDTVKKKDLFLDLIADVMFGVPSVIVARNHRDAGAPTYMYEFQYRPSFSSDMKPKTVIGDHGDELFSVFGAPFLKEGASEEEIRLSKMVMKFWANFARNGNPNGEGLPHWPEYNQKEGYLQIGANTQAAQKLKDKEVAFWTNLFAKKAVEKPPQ

For `C1CCN(C2CCNCC2)CC1` [4PP, 4-piperidino-piperidine], the “effect on thermal stability of deglycosylated rCE” value (deglycosylated rCE; high concentrations of 4PP) was “stabilization occurs only with high concentrations”, the “effect on thermal stability of deglycosylated rCE” value (deglycosylated rCE; lower concentrations of 4PP) was “destabilize the enzyme” and the “melting temperature (Tm) of wild type rCE” value (wild type rCE; 10- to 100-fold molar excess of 4PP (0.016-0.16 mM)) was 51 °C. The “melting temperature (Tm) of wild type rCE” value (wild type rCE; higher concentrations of 4PP (1.6 mM, 10 mM)) was 54-55 °C.

In the case of `CCc1c2c(nc3ccc(O)cc13)-c1cc3c(c(=O)n1C2)COC(=O)[C@]3(O)CC` [SN-38], the “share of the SN-38 generated by activation of CPT-11 that makes it to the tumor” value [1] is listed as about 2%.

In the case of `Nc1c2c(nc3ccccc13)CCCC2` [tacrine, 1,2,3,4-tetrahydro-9-acridinamine], the “binding to hCE1” value (hCE1) is reported as “binds effectively”.

B1: human carboxylesterase 1 (hCE1), 62 kDa C-terminally-truncated form lacking six C-terminal amino acids (enzyme)
chain: GHPSSPPVVDTVHGKVLGKFVSLEGFAQPVAIFLGIPFGKPPLGPLRFTPPQPAEPWSFVKNATSYPPMCTQDPKAGQLLSELFTNRKENIPLKLSEDCLYLNIYTPADLTKKNRLPVMVWIHGGGLMVGAASTYDGLALAAHENVVVVTIQYRLGIWGFFSTGDEHSRGNWGHLDQVAALRWVQDNIASFGGNPGSVTIFGESAGGESVSVLVLSPLAKNLFHRAISESGVALTSVLVKKGDVKPLAEQIAITAGCKTTTSAVMVHCLRQKTEEELLETTLKMKFLSLDLQGDPRESQPLLGTVIDGMLLLKTPEELQAERNFHTVPYMVGINKQEFGWLIPMLMSYPLSEGQLDQKTAMSLLWKSYPLVCIAKELIPEATEKYLGGTDDTVKKKDLFLDLIADVMFGVPSVIVARNHRDAGAPTYMYEFQYRPSFSSDMKPKTVIGDHGDELFSVFGAPFLKEGASEEEIRLSKMVMKFWANFARNGNPNGEGLPHWPEYNQKEGYLQIGANTQAAQKLKDKEVAFWTNLFAKKAVEKPPQT
modifications: N-linked glycans (added to the model in refinement; positions not stated for the crystallised protein)
notes: Expressed by baculovirus in Spodoptera frugiperda Sf21 cells and secreted into the culture media; crystallised with tacrine or homatropine; also called human CE; human CE1
B1: binds [2].
